Assay results as given in paper PMC6100113, “Involvement of CYP4F2 in the Metabolism of a Novel Monophosphate Ester Prodrug of Gemcitabine and Its Interaction Potential In Vitro” (Molecules : A Journal of Synthetic Chemistry and Natural …, 2018).

Tests used:
[1] = Metabolite identification by UPLC/Triple TOF MS in rat intestinal microsomes; format: in vitro ADME; design: key: √: metabolites were detected by high-resolution mass spectrometry; conditions: Compound-3 10 μM, NADPH, 60 min, HRMS
[2] = tested on: H460 tumor xenograft (non-small cell lung cancer); conditions: cited from earlier work
[3] = Metabolic stability in rat liver microsomes; format: in vitro ADME; conditions: rat liver microsomes 0.2 mg/mL, with NADPH, 1 μM, 37 °C
Protocol: Stability of Compound-3 was first investigated in microsomal systems from human and rat. The microsomal protein and Compound-3 concentrations were optimized to 0.2 mg/mL and 1 µM, respectively. Before the start of the incubation, reaction mixtures containing phosphate buffer (100 mM, pH 7.4), microsomes and Compound-3 in a total volume of 50 µL were warmed up at 37 °C for 10 min. The reaction was started with the addition of NADPH at a final concentration of 1 mM. Incubations were terminated at a specified time with the addition of 100 µL ice-cold acetonitrile containing the internal standard. The samples were then centrifuged, and aliquots of 10 µL of the supernatants were transferred into liquid chromatography-tandem mass spectrometry (LC-MS/MS) for the analysis of Compound-3 levels.

[4] = target: T1, CYP4F2 (Homo sapiens, UniProt P78329); assay: Formation kinetics of M4 (carboxylic acid) from Compound-3 by CYP4F2; format: in vitro ADME; conditions: CYP4F2 10 nM, 10 min, uncompetitive substrate inhibition equation, estimated
T1 construct: purchased Corning Gentest
T1 sequence (P78329 5-520): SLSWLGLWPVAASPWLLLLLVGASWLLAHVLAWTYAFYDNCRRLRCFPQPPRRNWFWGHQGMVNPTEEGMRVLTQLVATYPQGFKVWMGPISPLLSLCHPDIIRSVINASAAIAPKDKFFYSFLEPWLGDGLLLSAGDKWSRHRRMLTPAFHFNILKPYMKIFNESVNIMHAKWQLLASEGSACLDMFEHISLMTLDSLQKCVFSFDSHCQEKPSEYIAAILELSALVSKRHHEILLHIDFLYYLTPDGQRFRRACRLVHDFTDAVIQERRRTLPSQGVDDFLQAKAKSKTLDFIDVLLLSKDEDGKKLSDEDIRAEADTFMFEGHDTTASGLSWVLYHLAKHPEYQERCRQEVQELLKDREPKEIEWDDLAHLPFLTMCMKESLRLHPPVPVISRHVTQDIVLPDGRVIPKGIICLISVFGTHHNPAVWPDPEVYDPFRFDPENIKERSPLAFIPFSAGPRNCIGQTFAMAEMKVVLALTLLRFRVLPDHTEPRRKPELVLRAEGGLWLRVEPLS
Protocol: To investigate the formation kinetics of carboxylic acid metabolite (M4) from Compound-3, varying concentrations of Compound-3 (0–10 µM) were incubated with 10 nM CYP4F2 and 1 mM NADPH in 100 mM phosphate buffer (pH 7.4). The reactions were carried at 37 °C for 10 min and terminated with the addition of ice-cold acetonitrile containing the internal standard. Samples were then centrifuged, and aliquots of 10 μL of the supernatants were analyzed by LC-MS/MS for M4 levels.
Kinetic parameters of Compound-3 in recombinant human CYP4F2 were calculated using Enzyme Kinetics Modules of SigmaPlot (Version 14.0, Systat Software, San Jose, CA, USA). An uncompetitive substrate inhibition equation was also used:V = (Vmax × [S])/{Km + [S] × (1 + [S]/Ki)}(2) where Ki is the disassociation constant describing the inhibitor-enzyme interaction.

CCCCCCCCCCCCCCCCCCOCCOP(=O)(O)OCC1OC(n2ccc(N)nc2=O)C(F)(F)C1O (stereo not shown) [Compound-3]
detected in matrix RIM [1]: √
oral activity in tumor xenograft model [2]: orally active
disappearance in 60 min [3]: ~ 10%
Ki [4]: 1.2 nM
